# Measurements reported in patent US10597388B2, “Pyridazinone herbicides” (FMC CORPORATION, priority 2014, dated 2020).
# Experiments:
# Type in all cases: in vivo
# corn (Zea mays) [1] = test: Test A greenhouse herbicide test, pre- and postemergence; details: Postemergence
# Outline: (§1)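 Seeds in loam–sand blend received a preemergence directed soil spray; plants at 2–10 cm, one- to two-leaf stage, received postemergence sprays. Compounds in a non-phytotoxic solvent with surfactant. After about 10 d in a greenhouse, injury rated visually versus untreated controls on a 0–100 scale (100 = complete control).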
# [2] = test system: foxtail, giant (giant foxtail, Setaria faberii); test: as above
# Outline: as §1
# [3] = test system: ryegrass, Italian (Italian ryegrass, Lolium multiflorum); test: as above
# Outline: as §1
# [4] = test system: wheat (Triticum aestivum); test: as above; details: Postemergence
# Outline: as §1
# [5] = test system: blackgrass (Alopecurus myosuroides); test: Test C greenhouse herbicide test, pre- and postemergence
# Outline: (§2)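 Pre- and postemergence greenhouse screen; values are visual control ratings, 0 meaning no effect and 100 complete kill, assigned relative to untreated plants after 13 to 15 d.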
# corn (Zea mays) [6] = test: as above
# Outline: as §2
# [7] = test system: nutsedge, yellow (yellow nutsedge, Cyperus esculentus); test: as above
# Outline: as §2
# [8] = test system: pigweed (Amaranthus retroflexus); test: as above
# Outline: as §2
# soybean (Glycine max) = test: as above
# Outline: as §2
# [9] = test system: velvetleaf (Abutilon theophrasti); test: as above
# Outline: as §2
# [10] = test system: waterhemp (common waterhemp, Amaranthus rudis); test: as above
# Outline: as §2
# [11] = 1000 g ai/ha, 0 to 100 scale, 0 is no effect, 100 is complete control
# [12] = Postemergence, 1000 g ai/ha, 0 to 100 scale, 0 is no effect, 100 is complete control
# [13] = Preemergence, 1000 g ai/ha, 0 to 100 scale, 0 no effect, 100 complete control
# [14] = Postemergence, 31 g ai/ha, 0 to 100 scale (0 no effect, 100 complete control)
# [15] = Postemergence, 125 g ai/ha, scale 0 to 100, 0 is no effect, 100 is complete control
# [16] = Postemergence, 250 g ai/ha, scale 0 to 100, 0 no effect, 100 complete control, 13 to 15 d
# [17] = Preemergence, 31 g ai/ha, scale 0 to 100, 0 is no effect, 100 is complete control
# [18] = Preemergence, 62 g ai/ha, scale 0 to 100, 0 is no effect, 100 is complete control
# [19] = Preemergence, 125 g ai/ha, scale 0 to 100, 0 is no effect, 100 is complete control
# [20] = Preemergence, 250 g ai/ha, scale 0 to 100, 0 no effect, 100 complete control
# [21] = postemergence, 62 g ai/ha, scale 0 to 100, 0 no effect, 100 complete control
# [22] = 125 g ai/ha, 0 to 100 scale where 0 is no effect and 100 is complete control
# [23] = 500 g ai/ha, visual rating after approx. 10 d, 0 to 100 scale (0 no effect, 100 complete control)
# [24] = Postemergence, 125 g ai/ha, 0 to 100 scale where 0 is no effect and 100 is complete control
# [25] = Postemergence, 500 g ai/ha, visual rating after approx. 10 d, 0 to 100 scale (0 no effect, 100 complete control)
# [26] = Preemergence, 125 g ai/ha, 0 to 100 scale where 0 is no effect and 100 is complete control
# [27] = Preemergence, 500 g ai/ha, 0 to 100 scale where 0 is no effect and 100 is complete control
smiles,measurement,setting,value
CCc1ccc2ccccc2c1-c1c(O)c(C)nn(C)c1=O [Compound 32],Corn plant response rating,corn (Zea mays) [1]; [11],50
same,"Foxtail, Giant plant response rating",[2]; [12],90
same,"Plant response rating, Foxtail, Giant",[2]; [13],100
same,"Ryegrass, Italian plant response rating",[3]; [12],100
same,"Plant response rating, Ryegrass, Italian",[3]; [13],100
same,Wheat plant response rating,[4]; [11],100
same,Blackgrass plant response rating,[5]; [14],30
same,"Plant response rating, Blackgrass",[5]; [15],80
same,"Plant response rating, Blackgrass",[5]; [16],80
same,"Plant response rating, Blackgrass",[5]; [17],70
same,"Plant response rating, Blackgrass",[5]; [18],90
same,"Plant response rating, Blackgrass",[5]; [19],90
same,Blackgrass plant response rating,[5]; [20],90
same,Blackgrass plant response rating,[5]; [21],60
same,Corn plant response rating,corn (Zea mays) [6]; [14],0
same,"Plant response rating, Corn",corn (Zea mays) [6]; [15],30
same,"Plant response rating, Corn",corn (Zea mays) [6]; [16],40
same,"Plant response rating, Corn",corn (Zea mays) [6]; [17],0
same,"Plant response rating, Corn",corn (Zea mays) [6]; [18],0
same,"Plant response rating, Corn",corn (Zea mays) [6]; [19],0
same,Corn plant response rating,corn (Zea mays) [6]; [20],35
same,Corn plant response rating,corn (Zea mays) [6]; [21],20
same,"Nutsedge, Yellow plant response rating",[7]; [14],55
same,"Plant response rating, Nutsedge, Yellow",[7]; [15],80
same,"Plant response rating, Nutsedge, Yellow",[7]; [16],85
same,"Plant response rating, Nutsedge, Yellow",[7]; [17],25
same,"Plant response rating, Nutsedge, Yellow",[7]; [18],45
same,"Plant response rating, Nutsedge, Yellow",[7]; [19],45
same,"Nutsedge, Yellow plant response rating",[7]; [20],60
same,"Nutsedge, Yellow plant response rating",[7]; [21],80
same,Pigweed plant response rating,[8]; [14],75
same,"Plant response rating, Pigweed",[8]; [15],90
same,"Plant response rating, Pigweed",[8]; [16],95
same,"Plant response rating, Pigweed",[8]; [17],100
same,"Plant response rating, Pigweed",[8]; [18],100
same,"Plant response rating, Pigweed",[8]; [19],100
same,Pigweed plant response rating,[8]; [20],100
same,Pigweed plant response rating,[8]; [21],90
same,Soybean plant response rating,soybean (Glycine max); [14],15
same,"Plant response rating, Soybean",soybean (Glycine max); [15],30
same,"Plant response rating, Soybean",soybean (Glycine max); [16],35
same,"Plant response rating, Soybean",soybean (Glycine max); [18],10
same,"Plant response rating, Soybean",soybean (Glycine max); [19],40
same,Soybean plant response rating,soybean (Glycine max); [20],55
same,Soybean plant response rating,soybean (Glycine max); [21],25
same,Velvetleaf plant response rating,[9]; [14],10
same,"Plant response rating, Velvetleaf",[9]; [15],85
same,"Plant response rating, Velvetleaf",[9]; [16],85
same,"Plant response rating, Velvetleaf",[9]; [18],85
same,"Plant response rating, Velvetleaf",[9]; [19],85
same,Velvetleaf plant response rating,[9]; [20],90
same,Velvetleaf plant response rating,[9]; [21],70
same,Waterhemp plant response rating,[10]; [14],70
same,"Plant response rating, Waterhemp",[10]; [15],85
same,"Plant response rating, Waterhemp",[10]; [16],98
same,"Plant response rating, Waterhemp",[10]; [18],100
same,"Plant response rating, Waterhemp",[10]; [19],100
same,Waterhemp plant response rating,[10]; [20],100
same,Waterhemp plant response rating,[10]; [21],80
COC(=O)Oc1cnn(C)c(=O)c1-c1c(C)sc2ccccc12 [Compound 97],"Plant response rating, Corn",corn (Zea mays) [1]; [22],10
same,"Plant response rating, Corn",corn (Zea mays) [1]; [23],70
same,"Plant response rating, Foxtail, Giant",[2]; [24],80
same,"Plant response rating, Foxtail, Giant",[2]; [25],100
same,"Foxtail, Giant plant response rating",[2]; [26],60
same,"Plant response rating, Foxtail, Giant",[2]; [27],100
same,"Plant response rating, Ryegrass, Italian",[3]; [24],100
same,"Plant response rating, Ryegrass, Italian",[3]; [25],100
same,"Ryegrass, Italian plant response rating",[3]; [26],100
same,"Plant response rating, Ryegrass, Italian",[3]; [27],100
same,"Plant response rating, Wheat",[4]; [22],20
same,"Plant response rating, Wheat",[4]; [23],80
same,Blackgrass plant response rating,[5]; [14],0
same,"Plant response rating, Blackgrass",[5]; [15],0
same,"Plant response rating, Blackgrass",[5]; [16],0
same,"Plant response rating, Blackgrass",[5]; [17],0
same,"Plant response rating, Blackgrass",[5]; [18],0
same,"Plant response rating, Blackgrass",[5]; [19],0
same,Blackgrass plant response rating,[5]; [20],5
same,Blackgrass plant response rating,[5]; [21],0
same,Corn plant response rating,corn (Zea mays) [6]; [14],0
same,"Plant response rating, Corn",corn (Zea mays) [6]; [15],0
same,"Plant response rating, Corn",corn (Zea mays) [6]; [16],5
same,"Plant response rating, Corn",corn (Zea mays) [6]; [17],5
same,"Plant response rating, Corn",corn (Zea mays) [6]; [18],0
same,"Plant response rating, Corn",corn (Zea mays) [6]; [19],0
same,Corn plant response rating,corn (Zea mays) [6]; [20],0
same,Corn plant response rating,corn (Zea mays) [6]; [21],0
same,"Plant response rating, Nutsedge, Yellow",[7]; [15],0
same,"Plant response rating, Nutsedge, Yellow",[7]; [16],5
same,"Plant response rating, Nutsedge, Yellow",[7]; [17],0
same,"Plant response rating, Nutsedge, Yellow",[7]; [18],0
same,"Plant response rating, Nutsedge, Yellow",[7]; [19],0
same,"Nutsedge, Yellow plant response rating",[7]; [20],0
same,"Nutsedge, Yellow plant response rating",[7]; [21],0
same,"Plant response rating, Pigweed",[8]; [15],60
same,"Plant response rating, Pigweed",[8]; [16],75
same,"Plant response rating, Pigweed",[8]; [17],5
same,"Plant response rating, Pigweed",[8]; [18],35
same,"Plant response rating, Pigweed",[8]; [19],65
same,Pigweed plant response rating,[8]; [20],65
same,Pigweed plant response rating,[8]; [21],50
same,"Plant response rating, Soybean",soybean (Glycine max); [15],5
same,"Plant response rating, Soybean",soybean (Glycine max); [16],5
same,"Plant response rating, Soybean",soybean (Glycine max); [17],15
same,"Plant response rating, Soybean",soybean (Glycine max); [18],10
same,"Plant response rating, Soybean",soybean (Glycine max); [19],10
same,Soybean plant response rating,soybean (Glycine max); [20],20
same,Soybean plant response rating,soybean (Glycine max); [21],0
same,"Plant response rating, Velvetleaf",[9]; [15],10
same,"Plant response rating, Velvetleaf",[9]; [16],30
same,"Plant response rating, Velvetleaf",[9]; [17],0
same,"Plant response rating, Velvetleaf",[9]; [18],0
same,"Plant response rating, Velvetleaf",[9]; [19],20
same,Velvetleaf plant response rating,[9]; [20],30
same,Velvetleaf plant response rating,[9]; [21],20
same,"Plant response rating, Waterhemp",[10]; [15],5
same,"Plant response rating, Waterhemp",[10]; [16],10
same,"Plant response rating, Waterhemp",[10]; [17],0
same,"Plant response rating, Waterhemp",[10]; [18],10
same,"Plant response rating, Waterhemp",[10]; [19],10
same,Waterhemp plant response rating,[10]; [20],20
same,Waterhemp plant response rating,[10]; [21],5
